Laboratory results from US5385842A, “Anthraquinones as inhibitors of sulfide production from sulfate-reducing bacteria” (E. I. Du Pont de Nemours and Company, priority 1993, dated 1995).

Legend:
D. desulfuricans G100A [1] = test: Growth of D. desulfuricans G100A after addition of inhibitor at 12 h; type: cell-based
Experimental: Four 10 ml culture tubes of BTZ-3 medium as defined in Example 1 supplemented with sodium lactate (40 mM) and sodium sulfate (30 mM) and 0.5 ml of reducing agent were inoculated with 100 ul of a fully grown suspension of D. desulfuricans G100A. The culture was allowed to grow and the optical density at 660 nm was monitored until the cells entered into exponential growth (approx. 12-15 h, O.D. 660=0.1-0.2). At this time 100 ul of a 300 ppm solution of 1,8 dihydroxyanthraquinone, 1-chloranthraquinone or 3-chloro-2-anthraquinone carboxylic acid, respectively, was added to one of the tubes. The ethanol:water (80:20) solvent (100 μl ) was added to the fourth tube to serve as an uninhibited control.
#3 ppm inhibitor added at 12 hours

[2] = system: D. desulfuricans #ATCC27774; test: Respiration rate (hydrogen gas uptake) with sulfate as electron acceptor; conditions: Desulfovibrio desulfuricans, ATCC27774, 4 h, pH 7, read-out: Gas Uptake (as percent of control)
D. desulfuricans G100A [3] = test: Effect of dithionite-reduced anthraquinones on growth of D. desulfuricans G100A; type: cell-based
Experimental: Three anthraquinones, 1,8-dihydroxy-, 1-chloro-, and 3-chloro-2-carboxy- were prepared as 1 ml of 1000 ppm solutions in acetone for the first two compounds or water for the third. These solutions were then treated with 1 mg of the strong reducing agent, sodium dithionite. 50 ul of each solution (for a final culture concentration of 5 ppm) was used immediately to treat growing cultures of D. desulfuricans G100A in BTZ-3 medium as defined in Example 1. The compounds were added to the 10 ml cultures at 15 h of growth.

[4] = system: Desulfovibrio desulfuricans G100A; test: microbe, parasite or virus in culture; type: cell-based; conditions: for inhibition at 10 ppm / inhibition at 30 ppm: Desulfovibrio desulfuricans, G100A, read-out: % Inhib. (inhibition of sulfide production)
[5] = system: B. aureus, B. subtilis, B. stearothermophilus and S. aureus; conditions: background art; cited from earlier work
Desulfovibrio gigas = test: Sulfide production by resting cells of D. gigas; type: cell-based; conditions: for activity at 0.1 ppm / activity at 0.5 ppm / activity at 2 ppm / activity at 5 ppm: Desulfovibrio, 3 hours at 31° C.; for inhibition of sulfide production (in words): resting cells
Experimental: Experiments in this example were carried out using resting cells of Desulfovibrio gigas rather than growing cells as was the case for the autoanalyzer system employing the Desulfovibrio desulfuricans G100A strain. […] Thus the experiment examined a different organism, different test system, and a different physiological state for the phenomenon of anthraquinone inhibition of sulfide production by Desulfovibrio sp. Active compounds, as determined by the autoanalyzer, were evaluated in comparison with four additional compounds not evaluated in the autoanalyzer.
500 ml cultures of Desulfovibrio gigas were grown on standard BTZ-3 medium as previously described in Example 1 with 30 mM sodium lactate, 30 mM sodium sulfate and 30 mM sodium fumarate. The culture was harvested after 24 h of growth at 31° C. by centrifugation at 8000 rpm in a GSA Sorvall rotor for 20 minutes. The cell pellet was resuspended in 30 ml of incubation assay mixture of the following composition: 50 mM HEPES buffer pH 7 buffer, 2.5 mM sodium lactate, 2.5 mM sodium sulfate. This suspension was centrifuged again at 10,000 rpm in a Sorvall SS-34 rotor for 5 minutes. The resulting cell pellet was resuspended in 5 ml of incubation assay buffer. Cell densities were generally near 10e10 cells/mi.
The samples were assayed for production in the presence of anthraquinones. 200 ul of the cell suspension was added to 1.2 ml of incubation assay mixture in a 5 ml capacity test tube. The tube was gassed with hydrogen gas for 20 minutes then the anthraquinones were added as ethanolic solutions, the tubes were then gassed with hydrogen again for 5 minutes. The reaction mixtures were then incubated for 3 hours at 31° C. The reactions were stopped by the addition of 200 ul of 1N sodium hydroxide. After 20 minutes the alkaline mixtures were centrifuged in a table top microfuge for 4 minutes at 14,000 rpm to remove cells and cell debris. The supernatant was then assayed for sulfide using the ferric chloride-DPD reagent system as described by Siegel et al., Anal. Blochem., 11:126-132, 1965, herein incorporated by reference.

[6] = system: sulfate-reducing bacteria; conditions: background art; cited from earlier work
bacteria = conditions: background art; cited from earlier work
[7] = system: E. coli, Pseudomonas, Salmonella or Sarcina; conditions: background art; cited from earlier work
[8] = system: Bacillus, Nocardia, Streptomyces, Proteus; conditions: background art; cited from earlier work
anaerobic bacteria = conditions: background art; cited from earlier work
[9] = 0 h of growth, before addition of 3 ppm inhibitor at 12 h
[10] = 10 h of growth, before addition of 3 ppm inhibitor at 12 h
[11] = 12 h of growth, 3 ppm inhibitor added at 12 h
[12] = 14 h of growth, 3 ppm inhibitor added at 12 h
[13] = 18 h of growth, 3 ppm inhibitor added at 12 h
[14] = 20 h of growth, 3 ppm inhibitor added at 12 h
[15] = 24 h of growth, 3 ppm inhibitor added at 12 h
[16] = 29 h of growth, 3 ppm inhibitor added at 12 h
[17] = 34 h of growth, 3 ppm inhibitor added at 12 h
[18] = 62 h of growth, 3 ppm inhibitor added at 12 h
[19] = 92 h of growth, 3 ppm inhibitor added at 12 h
[20] = 0 h, before addition of 5 ppm dithionite-reduced compound at 15 h, control 0.02
[21] = 2 h, before addition of 5 ppm dithionite-reduced compound at 15 h, control 0.02
[22] = 12 h, before addition of 5 ppm dithionite-reduced compound at 15 h, control 0.08
[23] = 15 h, time of addition of 5 ppm dithionite-reduced compound, control 0.18
[24] = 17 h, 5 ppm dithionite-reduced compound added at 15 h, control 0.26
[25] = 20 h, 5 ppm dithionite-reduced compound added at 15 h, control 0.37
[26] = 25 h, 5 ppm dithionite-reduced compound added at 15 h, control 0.50
[27] = 30 h, 5 ppm dithionite-reduced compound added at 15 h, control 0.98
[28] = 45 h, 5 ppm dithionite-reduced compound added at 15 h, control 1.50

O=C(O)c1cc2c(cc1Cl)C(=O)c1ccccc1C2=O [2-Chloroanthraquinone-3-carboxylic acid, 3-Chloro-9,10-dihydro-9,10-dioxo-2-anthracenecarboxylic acid]
optical density reading at 660 nm (D. desulfuricans G100A [1]; [9]): .01
optical density reading at 660 nm (D. desulfuricans G100A [1]; [10]): .10
optical density reading at 660 nm (D. desulfuricans G100A [1]; [11]): .16
optical density reading at 660 nm (D. desulfuricans G100A [1]; [12]): .21
optical density reading at 660 nm (D. desulfuricans G100A [1]; [13]): .36
optical density reading at 660 nm (D. desulfuricans G100A [1]; [14]): .38
optical density reading at 660 nm (D. desulfuricans G100A [1]; [15]): .36
optical density reading at 660 nm (D. desulfuricans G100A [1]; [16]): .37
optical density reading at 660 nm (D. desulfuricans G100A [1]; [17]): .37
optical density reading at 660 nm (D. desulfuricans G100A [1]; [18]): .34
optical density reading at 660 nm (D. desulfuricans G100A [1]; [19]): .25
activity at 0.6 ppm [2]: 79%
activity at 1.5 ppm [2]: 55%
activity at 3 ppm [2]: 41%
Optical Density @ 660 nm (D. desulfuricans G100A [3]; [20]): 0.02
Optical Density @ 660 nm (D. desulfuricans G100A [3]; [21]): 0.02
Optical Density @ 660 nm (D. desulfuricans G100A [3]; [22]): 0.07
Optical Density @ 660 nm (D. desulfuricans G100A [3]; [23]): 0.1
Optical Density @ 660 nm (D. desulfuricans G100A [3]; [24]): 0.15
Optical Density @ 660 nm (D. desulfuricans G100A [3]; [25]): 0.17
Optical Density @ 660 nm (D. desulfuricans G100A [3]; [26]): 0.17
Optical Density @ 660 nm (D. desulfuricans G100A [3]; [27]): 0.16
Optical Density @ 660 nm (D. desulfuricans G100A [3]; [28]): 0.22
inhibition at 10 ppm [4]: 100%

O=C1c2ccccc2C(=O)c2c1ccc(O)c2O [1,2-Dihydroxyanthraquinone]
antibacterial activity (in words) [5]: either inactive against these strains or required concentrations in excess of 100 to 1000 ppm for inhibition
inhibition at 10 ppm [4]: 68.9%

O=C1c2ccccc2C(=O)c2c(Cl)cccc21 [1-Chloroanthraquinone]
optical density reading at 660 nm (D. desulfuricans G100A [1]; [9]): .01
optical density reading at 660 nm (D. desulfuricans G100A [1]; [10]): .11
optical density reading at 660 nm (D. desulfuricans G100A [1]; [11]): .12
optical density reading at 660 nm (D. desulfuricans G100A [1]; [12]): .12
optical density reading at 660 nm (D. desulfuricans G100A [1]; [13]): .27
optical density reading at 660 nm (D. desulfuricans G100A [1]; [14]): .32
optical density reading at 660 nm (D. desulfuricans G100A [1]; [15]): .32
optical density reading at 660 nm (D. desulfuricans G100A [1]; [16]): .30
optical density reading at 660 nm (D. desulfuricans G100A [1]; [17]): .32
optical density reading at 660 nm (D. desulfuricans G100A [1]; [18]): .26
optical density reading at 660 nm (D. desulfuricans G100A [1]; [19]): .23
activity at 0.6 ppm [2]: 74%
activity at 1.5 ppm [2]: 50%
activity at 3 ppm [2]: 38%
Optical Density @ 660 nm (D. desulfuricans G100A [3]; [20]): 0.02
Optical Density @ 660 nm (D. desulfuricans G100A [3]; [21]): 0.02
Optical Density @ 660 nm (D. desulfuricans G100A [3]; [22]): 0.08
Optical Density @ 660 nm (D. desulfuricans G100A [3]; [23]): 0.15
Optical Density @ 660 nm (D. desulfuricans G100A [3]; [24]): 0.20
Optical Density @ 660 nm (D. desulfuricans G100A [3]; [25]): 0.21
Optical Density @ 660 nm (D. desulfuricans G100A [3]; [26]): 0.22
Optical Density @ 660 nm (D. desulfuricans G100A [3]; [27]): 0.22
Optical Density @ 660 nm (D. desulfuricans G100A [3]; [28]): 0.24
inhibition at 30 ppm [4]: 20.8%
activity at 0.1 ppm (Desulfovibrio gigas): 81%
activity at 0.5 ppm (Desulfovibrio gigas): 26%
activity at 2 ppm (Desulfovibrio gigas): 1.6%
activity at 5 ppm (Desulfovibrio gigas): 1.3%
inhibition of sulfide production (in words) (Desulfovibrio gigas): inhibitory properties

Nc1ccc(O)c2c1C(=O)c1ccccc1C2=O [1-Amino-4-hydroxyanthraquinone]
antibacterial activity (in words) [5]: either inactive against these strains or required concentrations in excess of 100 to 1000 ppm for inhibition
inhibition at 30 ppm [4]: 54.3%

[H]/N=C(\N/C(=N/[H])NCCCCCCNC(=N)NC(=N)Nc1ccc(Cl)cc1)Nc1ccc(Cl)cc1 [Chlorhexidine, reference compound]
effective / use concentration against sulfate-reducers [6]: 1-10 ppm
inhibition of sulfide production (in words) [4]: inhibits sulfide production
% inhibition of sulfide formation ([4]; Table III, Example 3): 88.7%

molybdate
effective / use concentration against sulfate-reducers [6]: 1000-4000 ppm

N#CC(Br)(Br)C(N)=O [2,2-Dibromo-3-nitrilopropionamide]
effective / use concentration against sulfate-reducers [6]: 3-12 ppm

N#Cc1cccc2c1C(=O)c1ccccc1C2=O [1-cyanoanthraquinone, 1-Cyanoanthraquinone]
activity at 0.1 ppm (Desulfovibrio gigas): 118%
activity at 0.5 ppm (Desulfovibrio gigas): 20%
activity at 2 ppm (Desulfovibrio gigas): 6.7%
activity at 5 ppm (Desulfovibrio gigas): 6.8%
inhibition of sulfide production (in words) (Desulfovibrio gigas): inhibitory effect

O=C(O)c1cc(O)c2c(c1)C(=O)c1cccc(O)c1C2=O [Rhein, 9,10-Dihydro-4,5-dihydroxy-9,10-dioxo-2-anthracenecarboxylic acid]
inhibition at 30 ppm [4]: 48.6%
antibacterial activity (in words) (bacteria): active component of leaf extracts of Cassia sp.

O=C1c2ccccc2C(=O)c2cc(C(F)(F)F)ccc21 [2-trifluoromethylanthraquinone, 2-Trifluoromethylanthraquinone]
activity at 0.1 ppm (Desulfovibrio gigas): 99%
activity at 0.5 ppm (Desulfovibrio gigas): 17%
activity at 2 ppm (Desulfovibrio gigas): 1.7%
activity at 5 ppm (Desulfovibrio gigas): 1.5%
inhibition of sulfide production (in words) (Desulfovibrio gigas): inhibitory effect

O=C1c2cc(O)cc(O)c2C(=O)c2c(O)ccc(O)c21 [1,4,6,8-tetrahydroxyanthraquinone]
antibacterial activity (in words) [7]: did not affect any species of E. coli, Pseudomonas, Salmonella or Sarcina
antibacterial activity (in words) [8]: inhibited 4 species of Bacillus, one strain of Nocardia, one strain (out of four tested) of Streptomyces and one of the Gram negative Proteus

Cc1ncc([N+](=O)[O-])n1CCO [metronidazole]
effectiveness (in words) (anaerobic bacteria): generally effective against anaerobic bacteria
